From patent US20240287172A1, “PROTEIN BINDERS TO IRHOM2 EPITOPES” (SCIRHOM GMBH, priority 2019, published 2024)

Test system: LPS-induced release of endogenous TNFα from PBMCs from patients suffering from rheumatoid arthritis
Assay: ELISA-based TNFα release assay, LPS-induced, PBMCs from RA-patients
Format: cell-based
Details: PBMC; LPS 1 ng/ml, 1.5 hours; chimeric antibodies (CHO) and human IgG at 1 μg/ml; Batimastat at 10 μM
Description: In brief, on day 1, Nunc black MaxiSorp® 96-well plates (Thermo Fisher Scientific, USA) were coated overnight with 100 μl per well of mouse anti-human TNFα capture antibody (provided as part of the DuoSet ELISA kit) at 4 μg/ml TBS at 4° C. On day 2, the capture antibody solution was removed and MaxiSorp® plates were blocked with 300 μl per well of TBS, 1% BSA at room temperature for 3 hours. Meanwhile, 20,000 PBMC from patients suffering from rheumatoid arthritis (STEMCELL Technologies, Canada) cells in 80 μl of normal growth medium were seeded in each well of Greiner CELLSTAR V-bottom 96-well plates (Thermo Fisher Scientific, USA) and pre-incubated with 20 μl per well of standard growth medium supplemented with Batimastat (BB94, Abcam, UK) at 50 μM as positive control (for a final concentration of 10 μM in the resulting 100 μl sample volume), human IgG antibody (Thermo Fisher Scientific, USA) at 5 μg/ml as isotype control (for a final concentration of 1 μg/ml in the resulting 100 μl sample volume) or antibodies of the invention at 5 μg/ml (for a final concentration of 1 μg/ml in the resulting 100 μl sample volume) at 37° C., 5% CO2 for 30 minutes. […] Using an infinite M1000 (Tecan Group, Switzerland) microplate reader, the fluorescence of each well was collected at an excitation wavelength of 435 nm and an emission wavelength of 555 nm.

CNC(=O)[C@H](Cc1ccccc1)NC(=O)[C@H](CC(C)C)[C@H](CSc1cccs1)C(=O)NO [Batimastat]
inhibition at 10 µM: 99.9%
